Data taken from paper PMC9141032 (International Journal of Molecular Sciences, 2022).

What was measured:
[1] = tested on: 5xFAD murine model; set-up: method as in ref 32, 33 = [32]; 32. Escolano C. Pallás M. Griñán-Ferré C. Abás S. Callado L.-F. García-Sevilla J.A. Synthetic I 2 Imidazoline Receptor Ligands for Prevention or Treatment of Human Brain Disorders Patent WO 2019/12185 || [33]; PMID 32150414; doi:10.1021/acs.jmedchem.9b02080; 33. Abás S. Rodríguez-Arévalo S. Bagán A. Griñán-Ferré C. Vasilopoulou F. Brocos-Mosquera I. Muguruza C. Pérez B. Molins E. Luque F.J. Bicyclic α-Iminophosphonates as High Affinity Imidazoline I 2 Rec; details: 5 mg/kg in drinking water, 4 weeks; cited from earlier work
[2] = set-up: method as in ref 33 = [33]; PMID 32150414; doi:10.1021/acs.jmedchem.9b02080; 33. Abás S. Rodríguez-Arévalo S. Bagán A. Griñán-Ferré C. Vasilopoulou F. Brocos-Mosquera I. Muguruza C. Pérez B. Molins E. Luque F.J. Bicyclic α-Iminophosphonates as High Affinity Imidazoline I 2 Rec; details: previous studies, cited from earlier work
[3] = tested on: SAMP8 murine model; details: cited from earlier work
[4] = tested on: SH-SY5Y cells; experiment: Protection of SH-SY5Y cells from 6-OHDA-induced death (MTT); details: 6-OHDA 25 μM 16 h
[5] = tested on: mice; experiment: Toxicity observation during the PK study; assay type: in vivo, mouse; details: single dose 10 mg/kg intraperitoneally
Procedure: Thus, two-month-old mice were treated with a single dose of 10 mg/kg intraperitoneally in ten groups (n = 3), for consecutive times: 0, 5, 15, 30 min and 1, 2, 4, 6, 8, 24 h. After treatment, mice were euthanized, and the plasma and brain were collected.

[6] = tested on: mice; set-up: method as in ref 33 = [33]; PMID 32150414; doi:10.1021/acs.jmedchem.9b02080; 33. Abás S. Rodríguez-Arévalo S. Bagán A. Griñán-Ferré C. Vasilopoulou F. Brocos-Mosquera I. Muguruza C. Pérez B. Molins E. Luque F.J. Bicyclic α-Iminophosphonates as High Affinity Imidazoline I 2 Rec; details: repeated administration of 20 mg/kg for 5 days; cited from earlier work
[7] = tested on: adult rats; set-up: method as in ref 33 = [33]; PMID 32150414; doi:10.1021/acs.jmedchem.9b02080; 33. Abás S. Rodríguez-Arévalo S. Bagán A. Griñán-Ferré C. Vasilopoulou F. Brocos-Mosquera I. Muguruza C. Pérez B. Molins E. Luque F.J. Bicyclic α-Iminophosphonates as High Affinity Imidazoline I 2 Rec; details: 20 and 35 mg/kg intraperitoneally, 1 and 2 h postinjection; cited from earlier work
[8] = tested on: SH-SY5Y cells; experiment: Active caspase 3 in 6-OHDA-treated SH-SY5Y cells (immunodetection, Western blot); details: 1 μM, 16 h after 6-OHDA
[9] = set-up: method as in ref 32, 33 = [32]; 32. Escolano C. Pallás M. Griñán-Ferré C. Abás S. Callado L.-F. García-Sevilla J.A. Synthetic I 2 Imidazoline Receptor Ligands for Prevention or Treatment of Human Brain Disorders Patent WO 2019/12185 || [33]; PMID 32150414; doi:10.1021/acs.jmedchem.9b02080; 33. Abás S. Rodríguez-Arévalo S. Bagán A. Griñán-Ferré C. Vasilopoulou F. Brocos-Mosquera I. Muguruza C. Pérez B. Molins E. Luque F.J. Bicyclic α-Iminophosphonates as High Affinity Imidazoline I 2 Rec; details: cited from earlier work
[10] = tested on: primary astrocytes; experiment: Nitrite production (Griess) in LPS-treated primary astrocytes; details: 1 μM 1 h, then LPS 10 μg/mL 24 h
[11] = Metabolic stability in human liver microsomes; assay type: in vitro ADME; details: HLM
Procedure: In the assay, the reaction was initiated by adding HLM (1 mg/mL) to an equal volume of buffer solution containing the test compound and cofactors at the proper concentrations. Reactions without NADPH were also incubated to rule out non-NADPH metabolism or chemical instability in the incubation buffer. Verapamil was included as a positive control to monitor incubation course. All reactions were terminated using 60 µL of ice-cold acetonitrile at 0, 5, 15, 30, 45, and 60 min. The plates were centrifugated at 3500 rpm for 15 min. All experiments were conducted in triplicate. Samples were monitored for B06 disappearance by LC-MS in MRM mode according to a quantitation method for B06. […]
concentration 1 μM, protein concentration 1 mg/mL, NADPH, 1.3 mM. Potassium phosphate buffer (100 mM) pH 7.4 and human liver microsomes, were purchased from Beckton Dickinson. […]
needed for the study was Beckman Coulter Refrigerated centrifuge, Agilent 1290 Infinity Liquid Chromatograph, CTC Analytics PAL HT‐xt injector, Api4000 Mass Spectrometer. Total incubation […]
Analysis: For the data analysis the area ratio of analyzed versus internal standard was used to calculate the percentage of remaning compound at each incubation time. The natural logarithm of […]
the following equation: Half‐life (T1/2) (min) = 0.693/k (the slope of the natural log of the percent remaining versus time). Intrinsic clearance was determined by the following equation: Clint H = Ln 2/t1/2 (min) x volume incubation (mL)/microsomal protein (mg) x 45 (MPPGL) 1500 g human liver/ 70 Kg human body weight. Units for CLint are usually expressed as mL/min/mg microsomal protein, MPPGL = referred to as mg microsomal protein per gram liver.
Table S1. Summary of LC‐MS conditions
Table S2. Percentage of verapamil remaining at each incubation time […]

CCOP(=O)(OCC)[C@]1(c2ccccc2)N=C[C@H]2C(=O)N(c3ccc(F)c(Cl)c3)C(=O)[C@H]21 (racemic) [B06, diethyl (1RS,3aSR,6aSR)-5-(3-chloro-4-fluorophenyl)-4,6-dioxo-1-phenyl-1,3a,4,5,6,6a-hexahydropyrrolo[3,4-c]pyrrole-1-phosphonate]
effect on cognition [1]: improving cognition and ameliorating the neurodegenerative condition
mice microsomal percentage remanent ([2]; 60 min): 65.08%
t ½ in mice microsomes [2]: 91.72 min
effect on cognition and behaviour [3]: improving cognition and ameliorating anxiety-like behaviour
protection from 6-OHDA-induced cell death ([4]; 1 μM, 1 h pre-treatment): significantly rescued human dopaminergic cells from 6-OHDA-induced apoptosis
lowest concentration at which the most beneficial effect was obtained ([4]; dose-response, MTT): 1 µM
toxicity in organs or tissues, de visu observation after euthanasia [5]: no toxicity in organs or tissues
toxicity in the animals ([5]; up to 24 h): not toxicity in any of the animals
effect on body temperature [6]: hypothermia
effect on body temperature [7]: hypothermia
effect on 6-OHDA-induced increase of cells expressing active caspase 3 [8]: this effect was reversed by the treatment with B06
Pe value in PAMPA (BBB permeation) [9]: well above the threshold established for high BBB permeation
effect on nitrite production [10]: significant decrease in nitrite production
hepatic clearance category ([11]; classification bands low/medium/high): medium clearance
% compound remaining ([11]; minus NADPH, 0 min): 103.2 ± 13.82%
% compound remaining ([11]; minus NADPH, 60 min): 75.30 ± 1.27%
% compound remaining ([11]; plus NADPH, 0 min): 100.00 ± 14.46%
% compound remaining ([11]; plus NADPH, 5 min): 98.60 ± 9.11%
% compound remaining ([11]; plus NADPH, 15 min): 77.90 ± 13.20%
% compound remaining ([11]; plus NADPH, 30 min): 54.10 ± 6.84%
% compound remaining ([11]; plus NADPH, 45 min): 41.3 ± 5.83%
% compound remaining ([11]; plus NADPH, 60 min): 29.40 ± 3.69%
half-life at 1 μM ([11]; human, human liver microsomes, pH 7.4, 1 µM, 1 mg/mL protein): 28.4 min
